Legend:
[1] = tested on: benzodiazepine site of GABAA; test: Binding assay, benzodiazepine site of GABAA (binding assay 1: rat brain, (3H)-flunitrazepam; binding assay 2: bovine hippocampal membranes, [3H]-RY80); settings: radioligand binding; for % Inhibition at 0.1 μM: 0.1 μM test compound; for % Inhibition at 10 μM: 10 μM test compound
How it was run: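 Assay 1: rat whole-brain (minus cerebellum) membranes in Na–K phosphate pH 7.4, 1 nM (3H)-flunitrazepam, 60 min at 25° C., ± 30 μM GABA; nonspecific with 10 μM diazepam. Assay 2: bovine hippocampal membranes, 0.8 nM [3H]-RY80 in 50 mM Tris-Citrate pH 7.8/200 mM NaCl, 60 min at 0-4° C.; nonspecific with 0.5 μM L-655,708. Filtration read-out.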

GABAA receptors = test: Electrophysiology assay, two-electrode voltage clamp in Xenopus oocytes expressing GABAA receptors; assay type: cell-based; settings: GABA EC10, screening concentration of 10 μM, subunit combination not stated
Experimental: mRNA was prepared from lyophilized plasmid pellets containing cDNA inserts encoding the specific GABAA receptor subunit. cDNAs encoding the α2, α3, and γ3 subunits were subcloned into pBluescript, SK^−. cDNAs encoding the α1 and α5 subunits were subcloned into prC while cDNA encoding the β2 subunit was subcloned into pcDNA1. The cDNA construct encoding the γ2s subunit is in the pGH19 expression construct. Overnight cultures of transformed DH5a bacterial cells were performed to grow sufficient quantities for maxiprep isolation of the plasmid cDNA. The resulting plasmid cDNA was linearized by digestion with an appropriate restriction enzyme that cleaves distal to the cDNA insert (XbaI for α1,2, β2, and γ3 or NotI for α3,5 and γ2, respectively). Following digestion, plasmid cDNA was treated with proteinase K and extracted with phenol/chloroform/isoamyl alcohol, followed by ethanol precipitation. cDNA quality was assessed by agarose-gel electrophoresis (1.5% agarose gel). Samples were stored at −20° C. until use. In vitro transcription was performed with T7 RNA polymerase. mRNA was then stored at −80° C. until use. Plasmids were linearized with appropriate restriction enzymes before in vitro transcription using the Message Machine kit (Ambion, Austin, Tex.).
GABAA Receptor Expression in Xenopus oocytes.
GABAA receptor expression in Xenopus oocytes: Following 45 min of 0.15% Tricaine anesthesia, an ovarian section containing the follicular oocytes was removed from the frog through a lateral abdominal incision. Oocytes were immediately placed in a calcium-free solution (NaCl 96 mM, MgCl2 1 mM, KCl 2 mM, Hepes 50 mM, pyruvate 2.5 mM, gentamycin 100 μg/mL, penicillin-streptomycin 50 U/mL, pH 7.4). Following 1.5-2 hour incubation in 0.2% collagenase (type II, Sigma Chemical Co., St. Louis, Mo.) at room temperature, individual Dumont stage V and VI oocytes were transferred to an incubator and maintained overnight in Barth's solution (NaCl 84 mM, NaHCO3 2.4 mM, MgSO4 0.82 mM, KCl 1 mM, Ca(NO3)2 0.33 mM, CaCl2 0.41 mM, Tris/HCl 7.5 mM, pyruvate 2.5 mM, gentamycin 50 μg/mL, penicillin-streptomycin, 100 units/mL, pH 7.4) at 18-20° C. and used for experiments 1-5 days post-injection. Oocytes were injected solution using an electronic microinjector (Drummond, Broomall, Pa.) with 50 nL of RNA containing 0.3-0.5 ng of each subunit RNA in a 1:1:1 ratio. The injected oocytes were used for experiments after 1-5 days of incubation in Barth's solution at 18-20° C.
Measurements of ion currents from oocytes expressing GABAA receptors were performed using a Warner two-electrode voltage-clamp amplifier (Warner Instruments, Inc., Foster City, Calif.) (Park-Chung, M., et al. (1999) Brain Res. 830: 72-87 incorporated herein in its entirety). Microelectrodes were fabricated from borosilicate glass capillaries with a programmed pipette puller (Sutter Instrument Co., Calif.). Microelectrode resistance was 1-3 MΩ when filled with 3 M KCl. The oocyte recording chamber was continuously perfused with Ringer solution. Oocytes were clamped at a holding potential of −70 mV during data acquisition. The membrane current was filtered at 10 Hz and sampled at 100 Hz. Compounds were applied by a gravity-driven external perfusion system. The working volume of the recording chamber was 30 μL and the rate of the perfusion was approximately 50 μL/sec. Compound application was 10-20 sec followed by a 90 sec wash. Data acquisition and external perfusion was computer controlled by custom-developed software. All experiments were performed at room temperature (22-24° C.). Dose-response data from each oocyte were fitted to the Hill equation by non-linear regression using the equation: IGABA=Emax/(1+(EC50/c)^n^H)
Emax is the maximum response, EC50 is the concentration producing 50% of the maximal response, nH is the Hill coefficient and c is the concentration of agonist. […]

% Inhibition at 0.1 μM [1] | % Inhibition at 10 μM [1] | Structure (SMILES) | EP Modulation (GABAA receptors)
A (A indicates % inhibition >80%) | A (A indicates % inhibition >80%) | CCNC(=O)n1ncc2c3nn(-c4ccccc4)c(=O)c-3c[nH]c21 [Compound 6b, N-ethyl-3-oxo-2-phenyl-2,3-dihydrodipyrazolo[3,4-b:3′,4′-d]pyridine-6(5H)-carboxamide] | D (D indicates negative modulation >20%)
– | A (A indicates % inhibition >80%) | CCNC(=S)n1ncc2c3nn(-c4ccc(Cl)cc4)c(=O)c-3c[nH]c21 [Compound 6as, 2-(4-chlorophenyl)-N-ethyl-3-oxo-2,3-dihydrodipyrazolo[3,4-b:3′,4′-d]pyridine-6(5H)-carbothioamide] | D (D indicates negative modulation >20%)
C (C indicates % inhibition <20%) | A (A indicates % inhibition >80%) | CCNC(=O)n1ncc2c3nn(-c4ccccn4)c(=O)c-3c[nH]c21 [Compound 6m, N-ethyl-3-oxo-2-(pyridin-2-yl)-2,3-dihydrodipyrazolo[3,4-b:3′,4′-d]pyridine-6(5H)-carboxamide] | D (D indicates negative modulation >20%)
– | A (A indicates % inhibition >80%) | CCNC(=S)n1ncc2c3nn(-c4ccccc4)c(=O)c-3c[nH]c21 [Compound 6ar, N-ethyl-3-oxo-2-phenyl-2,3-dihydrodipyrazolo[3,4-b:3′,4′-d]pyridine-6(5H)-carbothioamide] | E (E indicates negative modulation <20%)

Structure (SMILES) | % Inhibition at 0.1 μM [1] | % Inhibition at 10 μM [1] | EP Modulation (GABAA receptors)
O=C(Nc1ccccc1)n1ncc2c3nn(-c4ccccc4)c(=O)c-3c[nH]c21 [Compound 6h, 3-oxo-N,2-diphenyl-2,3-dihydrodipyrazolo[3,4-b:3′,4′-d]pyridine-6(5H)-carboxamide] | C (C indicates % inhibition <20%) | B (B indicates % inhibition <80% and >20%) | D (D indicates negative modulation >20%)
CCNC(=O)n1ncc2c3nn(-c4ccc(Cl)cc4)c(=O)c-3c[nH]c21 [Compound 6o] | B (B indicates % inhibition <80% and >20%) | A (A indicates % inhibition >80%) | E (E indicates negative modulation <20%)
O=C(NCC(F)(F)F)n1ncc2c3nn(-c4ccccc4)c(=O)c-3c[nH]c21 [Compound 7b, 3-oxo-2-phenyl-N-(2,2,2-trifluoroethyl)-2,3-dihydrodipyrazolo[3,4-b:3′,4′-d]pyridine-6(5H)-carboxamide] | B (B indicates % inhibition <80% and >20%) | A (A indicates % inhibition >80%) | D (D indicates negative modulation >20%)

Source: US9012470B2 (Dart NeuroScience (Cayman) Ltd., priority 2010, dated 2015)
